Laboratory results published in patent US6716809B1, “Mage-A3 peptides presented by HLA class molecules” (priority 1997, dated 2004).

Experiments:
[1] = test system: CD4+ clone 436/B6.37 (B6/37); test: IFN-γ/TNF production by CD4+ clone B6/37 (clone 37) stimulated with peptide- or protein-pulsed EBV-B cells; type: cell-based, human
Method: The microcultures that contained proliferating CD4^+ T cells were assessed around 35 days after the start of the culture for their capacity to produce TNF and/or IFN-γ when stimulated with autologous EBV-B cells pulsed with the His-MAGE-A3 protein. Autologous EBV-B cells (500,000/ml) were incubated for 18-20 hours at 37° C. in the presence of 20 μg/ml of His-MAGE-A3 protein, or Ovalbumin (Sigma) as a negative control. EBV-B cells referred to herein are B cells which were immortalized with Epstein Barr virus. The EBV-B cells were prepared according to art-standard procedures. Protein-pulsed EBV-B cells were washed and added at 5,000 per round-bottomed microwell to 2,500 CD4^+ T lymphocytes in 150 μl of complete Iscove's medium supplemented with L-glutamine, L-arginine, L-asparagine, 10% human serum and IL-2 (25 U/ml). After 18-20 hours, supernatants were harvested and assessed for TNF content by testing the cytotoxic effect of the supernatants on TNF-sensitive WEHI 164 clone 13 cells as previously described (Espevik and Nissen-Meyer, J. Immunol. Methods 95:99-105, 1986) in a MTT colorimetric assay as previously described (Hansen et al., J. Immunol. Methods 119:203-210, 1989; Traversari et al., Immunogenetics 35:145-152, 1992). IFN-γ production was measured using an ELISA assay developed in our laboratory (see below) with reagents from Medgenix Diagnostics-Biosource (Fleurus, Belgium). Inhibition with mAbs W6/32 (anti-HLA class I) or 2B6 (anti-HLA-DR) was performed by addition of a 1/20 dilution of ascites during the experiment. Cytokine secretion in response to autologous EBV-B cells pulsed with MAGE-A3 was considered significant if it was at least twofold above the background response of T cells to EBV-B cells pulsed with ovalbumin, and if it exceeded 500 pg of IFN-γ or 50 pg/ml of TNF per ml.
In order to identify the MAGE-A3 peptides recognized by these CD4^+ clones, 16 amino acid peptides, corresponding to parts of the MAGE-A3 protein sequence were synthesized, loaded on the autologous EBV-B cells and tested for recognition (FIGS. 4 and 5). Peptides were synthesized using F-moc for transient NH2-terminal protection and were characterized using mass spectrometry. […] Lyophilized synthetic peptides were dissolved in DMSO (Merck) and used at a final concentration of 500 μM, 50 μM or 5 μg/ml. EBV-B cells (5,000 per round-bottomed microwell) were incubated 2 hours at 37° C., 8% CO2 in the presence of the different peptides, the indicated concentrations representing the peptide concentration during the incubation step. CD4^+ clones were then added at 2,500 cells per well. Assay medium was Iscove's medium supplemented with L-glutamine, L-arginine, L-asparagine, 10% human serum and IL-2 (25 U/ml). After 18-20 hours, supernatants were harvested and assessed for TNF-α and/or IFN-γ secretion. IFN-γ production was measured using an ELISA test (20-4000 pg/ml) developed in the laboratory with reagents from Medgenix Diagnostics-Biosource (Fleurus, Belgium).
To further define the HLA-restriction element utilized by clone B6/37, additional EBV-B cell lines were used for peptide presentation as described above (FIG. 7).
Unlike HLA-class I-restricted peptides, class II-restricted peptides usually vary in length and tolerate extensions at both the amino and carboxy termini, because they are not fixed by their ends in the groove. It is therefore difficult to define precisely the length of the antigenic peptide. Therefore a large number of MAGE-A3 peptides were tested at different concentrations (Tables IV and V). […] 2500 cells of clone 37 were then cocultured for 20 h in round-bottomed microwells with 5000 peptide-pulsed cells. IFN-γ released in the supernatant of the cocultures was measured in an ELISA assay. The experiments were performed in triplicate.

[2] = test system: clone 37; test: Presentation of exogenous MAGE-A3 by HLA-DR13 dendritic cells to clone 37 (IFN-γ ELISA); type: cell-based, human; conditions: 10^4 HLA-DR13 dendritic cells in 100 μl pre-incubated 24 h; 2500 clone 37 cells, 20 h
Method: Clone 37 was obtained with autologous dendritic cells heavily loaded with MAGE-A3 protein. To determine the ability of dendritic cells that capture a quantity of MAGE-A3 protein released by a few MAGE-A3^+ cells to stimulate CD4^+ T cells, HLA-DR13 dendritic cells were incubated for 24h with decreasing concentrations of MAGE-A3 as depicted in (FIG. 9A). Stimulation of clone 37 was tested by washing the cells, distributing the cells in round-bottomed microwells, and adding 2500 clone 37 cells. IFN-γ secretion was measured by ELISA after 20h of coculture. Experiments were performed in triplicate. Half maximum production of IFN-γ was obtained when 10^4 dendritic cells in a volume of 100 μl were pre-incubated with 30 ng of MAGE-A3, the quantity of MAGE-A3 present in around 2×10^4 MZ2-MEL.43 tumor cells.

Molecule | activation of clone B6/37 by 16 amino acid peptides [1] | stimulation of clone 37 ([1]; same conditions (peptide 10 ng/ml; HLA-DR13 EBV-B cells)) | quantity of MAGE-A3 giving half maximum production of IFN-γ [2]
FLLLKYRAREPVTKAE (listed as Homo sapiens) [MAGE-A3119-134] | unable to activate | not stimulated | 
MAGE-A3: MAGE-A3 protein; recombinant His-MAGE-A3 produced in E. coli, or expressed from MFG MAGE-A3 retrovirus in Example 6 (protein, listed as Homo sapiens, His tag) MPLEQRSQHCKPEEGLEARGEALGLVGAQAPATEEQEAASSSSTLVEVTLGEVPAAESPDPPQSPQGASSLPTTMNYPLWSQSYEDSSNQEEEGPSTFPDLESEFQAALSRKVAELVHFLLLKYRAREPVTKAEMLGSVVGNWQYFFPVIFSKASSSLQLVFGIELMEVDPIGHLYIFATCLGLSYDGLLGDNQIMPKAGLLIIVLAIIAREGDCAPEEKIWEELSVLEVFEGREDSILGDPKKLLTQHFVQENYLEYRQVPGSDPACYEFLWGPRALVETSYVKVLHHMVKISGGPHISYPPLHEWVLREGEE |  |  | 30 ng
